Reference: ChEMBL document CHEMBL1201862, “PubChem BioAssay data set” (2004)
The source made the active and inactive calls.

Assays:
[1] = Luminescence Cell-Based Dose Retest to Confirm Inhibitors of Cancer Stem Cells. [Related pubchem assays (depositor defined):AID2717, AID2721]; format: functional; settings: Homo sapiens
X-box-binding protein 1 = X-box-binding protein 1 (Homo sapiens, UniProt P17861); format: functional, Cricetulus griseus;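 further: confirmatory dose-response counter-screen serving a CHOP assay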
[2] = growth suppression of PTEN-null colon cells, dose response, cell-based, HCT116 PTEN knockout (AID 1047); format: functional;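 further: HCT116 colon tumor cells with PTEN knocked out; cells exposed to compound for 60 hours before readout; potency for loss of cell viability measured by luminescence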
[3] = growth suppression of beta-catenin-knockout colon cells, dose response, cell-based, HCT116, human colon tumor (AID 1045); format: functional;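 further: HCT116 colon tumor cells with beta catenin knocked out; cells exposed to compound for 60 hours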
14-3-3 protein gamma = 14-3-3 protein gamma (Homo sapiens, UniProt P61981); test: modulators of 14-3-3 gamma client binding – dose response (AID 711); format: functional
[4] = A Cell Based Secondary Assay To Explore Cytotoxicity of Compounds that Sensitize Mycobacterium Tuberculosis to Beta-Lactam Antibiotics.; format: functional
[5] = target: T1, Alkaline phosphatase, tissue-nonspecific isozyme (Homo sapiens, UniProt P05186)
T1 sequence (P05186 whole entry): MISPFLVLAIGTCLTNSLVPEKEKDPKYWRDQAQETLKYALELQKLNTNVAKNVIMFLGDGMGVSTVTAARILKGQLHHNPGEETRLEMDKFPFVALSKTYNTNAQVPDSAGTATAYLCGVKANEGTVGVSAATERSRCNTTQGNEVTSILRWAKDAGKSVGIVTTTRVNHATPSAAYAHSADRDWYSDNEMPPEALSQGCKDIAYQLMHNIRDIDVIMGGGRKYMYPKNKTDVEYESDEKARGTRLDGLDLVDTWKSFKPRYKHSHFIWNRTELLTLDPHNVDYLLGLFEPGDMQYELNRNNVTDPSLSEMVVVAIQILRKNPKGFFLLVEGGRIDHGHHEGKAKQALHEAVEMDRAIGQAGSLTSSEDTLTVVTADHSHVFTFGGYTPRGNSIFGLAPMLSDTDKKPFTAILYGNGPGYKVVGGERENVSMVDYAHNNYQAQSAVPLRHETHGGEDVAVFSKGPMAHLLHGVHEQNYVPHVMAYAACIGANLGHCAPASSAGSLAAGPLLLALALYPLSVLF

[6] = HEp-2 cell cytotoxicity, dose response, cytotoxicity control for RSV inhibitor project, HTS (AID 2410); format: functional; settings: human respiratory syncytial virus
[7] = target: Transitional endoplasmic reticulum ATPase (Homo sapiens, UniProt P55072, C522A); test: C522A mutant p97 ATPase inhibitors, dose response, counter-screen for p97 inhibitor project, biochemical, luminescence (AID 1544)
[8] = target: Transitional endoplasmic reticulum ATPase (Homo sapiens, UniProt P55072); test: p97 ATPase inhibitors, dose response, biochemical (AID 1534)
[9] = target: T2, Probable nicotinate-nucleotide adenylyltransferase (Staphylococcus aureus (strain N315), UniProt P65502); format: functional, Staphylococcus aureus subsp. aureus N315;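 on IC50 Mean: confirmatory dose-response retesting of NadD inhibitor hits first found in an ultra-high-throughput screen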
Genome polyprotein = Genome polyprotein (Hepatitis C virus, UniProt Q2Q167); test: HCV core protein dimerization inhibitors, dose response, biochemical, TR-FRET (AID 2159); design: species or system Hepacivirus hominis;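 further: blocks dimerization of HCV core protein measured by TR-FRET between tagged core106 pairs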
[10] = target: Induced myeloid leukemia cell differentiation protein Mcl-1 (Homo sapiens, UniProt Q07820); format: functional
[11] = target: T2, Probable nicotinate-nucleotide adenylyltransferase; format: functional, Staphylococcus aureus subsp. aureus N315; settings: read-out: IC50_Mean
Streptococcus = test: Group A Streptococcus viability loss, dose response, counter-screen for streptokinase expression inhibitor project, luminescence, BacTiterGlo (AID 1915); format: functional, organism-based;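 further: potency for reduction of bacterial viability or growth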
[12] = Jurkat T cell cytotoxicity, dose response, cytotoxicity control for P. falciparum gametocyte viability project, luminescence (AID 1117277); format: functional, cell-based;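 further: potency reflects loss of cellular ATP meaning fewer viable cells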
[13] = system: Streptococcus sp. 'group A'; test: growth inhibition of control SK(-) GAS strain, dose response, counter-screen for streptokinase expression inhibitor project, luminescence, kanamycin, BacTiterGlo, confirmation (AID 1900); format: functional, organism-based
Streptokinase A = target: T3, Streptokinase A (Streptococcus pyogenes serotype M1, UniProt P10520); test: S. pyogenes streptokinase expression inhibitors, potency, dose response, plasminogen activation absorbance, OD405 (AID 1914); format: functional, Streptococcus pyogenes M1 GAS;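 further: secreted streptokinase activity via plasminogen activation per viability signal from cell pellet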
T3 sequence (P10520 whole entry): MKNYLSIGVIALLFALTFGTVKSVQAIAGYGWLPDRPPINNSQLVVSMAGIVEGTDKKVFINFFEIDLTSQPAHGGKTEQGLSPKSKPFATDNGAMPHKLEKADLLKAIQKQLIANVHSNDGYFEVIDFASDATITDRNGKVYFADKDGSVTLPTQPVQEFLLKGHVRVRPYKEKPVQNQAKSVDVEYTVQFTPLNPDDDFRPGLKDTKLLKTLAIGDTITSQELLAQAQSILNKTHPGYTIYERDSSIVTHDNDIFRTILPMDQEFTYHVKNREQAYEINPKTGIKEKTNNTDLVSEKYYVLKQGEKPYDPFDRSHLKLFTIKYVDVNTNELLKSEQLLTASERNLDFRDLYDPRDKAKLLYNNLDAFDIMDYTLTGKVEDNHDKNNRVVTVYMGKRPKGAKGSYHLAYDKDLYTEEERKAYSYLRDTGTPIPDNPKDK

[14] = P. falciparum late gametocyte killing, dose response, luminescence (AID 1117278); format: functional, cell-based;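 further: gametocytes exposed to compound for 24 hours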
NS3 = NS3 (Hepatitis C virus, UniProt A3EZJ3); test: PubChem AID 2173; design: species or system Hepacivirus hominis
[15] = Luminescence Cell-Based Dose Confirmation HTS to Identify Inhibitors of Polyadenylation.; format: functional
[16] = target: Sphingosine 1-phosphate receptor 4 (Homo sapiens, UniProt O95977); test: Fluorescence dose response cell-based high throughput screening assay for antagonists of the Sphingosine 1-Phosphate Receptor 4 (S1P4). [Related pubchem assays: 1524 (Confirmation in triplicates.), 1510 (Primary screen.)]; format: functional
[17] = cytotoxicity in HEK-293T cells, dose response, cytotoxicity control for BCR NF-kB inhibitor project, luminescence, B-cell screen hits (AID 489021); format: functional, cell-based;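 further: HEK-293T cells carrying an NF-kB luciferase reporter; cells exposed to compound for about 14 hours before viability readout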
Estrogen receptor beta = Estrogen receptor beta (Homo sapiens, UniProt Q92731);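 further: recombinant ER-beta bound to coactivator SRC1 peptide in presence of estradiol agonist; inhibitors block coactivator peptide binding and lower the FRET signal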
H9c2 = test: cells; format: functional, cell-based; settings: Rattus norvegicus, H9c2, Myocardium;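 further: confirmatory concentration-response retest of ultra-high-throughput screening hits for modulation of myocardial damage; cell death induced by hydrogen peroxide oxidative stress; compound pretreatment for 60 min then peroxide exposure for 2 h; potency is for protecting the cells against peroxide damage rather than for killing them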
[18] = target: Peroxisome proliferator-activated receptor gamma/Nuclear receptor coactivator 3 (Homo sapiens, UniProt P37231); format: functional;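 further: agonist potency for raising coactivator recruitment to the receptor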
[19] = target: Peroxisome proliferator-activated receptor gamma/Nuclear receptor coactivator 1 (Homo sapiens, UniProt P37231); format: functional;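 further: agonist potency as compounds enhance coactivator SRC-1 recruitment to PPARgamma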
[20] = target: Peroxisome proliferator-activated receptor gamma/Nuclear receptor coactivator 2 (Homo sapiens, UniProt P37231); format: functional;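 further: agonist potency for raising coactivator recruitment to the receptor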
Nonstructural protein 1 = Nonstructural protein 1 (Influenza A virus, UniProt Q194T2); format: functional, Influenza A virus (A/California/07/2009(H1N1))
[21] = target: T4, Mannose-6-phosphate isomerase (Homo sapiens, UniProt P34949); test: human PMI inhibitors, high substrate, primary screen, biochemical, fluorescence intensity, high mannose 6-phosphate (AID 1220)
T4 sequence (P34949 whole entry): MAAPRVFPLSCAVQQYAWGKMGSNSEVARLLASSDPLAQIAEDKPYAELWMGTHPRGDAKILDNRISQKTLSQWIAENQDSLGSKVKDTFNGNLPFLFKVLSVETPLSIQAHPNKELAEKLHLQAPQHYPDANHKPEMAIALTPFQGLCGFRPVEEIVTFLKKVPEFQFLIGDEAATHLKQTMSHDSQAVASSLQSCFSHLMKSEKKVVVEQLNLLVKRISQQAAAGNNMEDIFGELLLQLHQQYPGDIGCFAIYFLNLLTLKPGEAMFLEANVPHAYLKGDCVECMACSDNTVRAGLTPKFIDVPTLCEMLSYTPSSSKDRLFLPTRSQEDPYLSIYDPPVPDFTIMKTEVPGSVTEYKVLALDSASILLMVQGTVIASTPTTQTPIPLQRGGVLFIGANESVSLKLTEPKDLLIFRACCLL

Vero = Vero cell cytotoxicity, cytotoxicity control for flavivirus capping enzyme inhibitors (AID 588742); format: functional; settings: Chlorocebus sabaeus
[22] = target: Disintegrin and metalloproteinase domain-containing protein 17 (Homo sapiens, UniProt P78536); test: ADAM17 protease inhibitors, dose response, counter-screen for ADAM10 exosite inhibitor project, biochemical, quenched FRET substrate (AID 743253)
[23] = target: T5, Heat shock factor protein 1 (Mus musculus, UniProt P38532); test: inhibition of MG132-induced HSE-luciferase signal, confirmation, cell-based, NIH3T3, luminescence, dose retest (AID 2382); format: functional;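 further: NIH3T3 fibroblasts with HSF1-driven luciferase reporter stressed by proteasome inhibitor MG132; luminescence from HSF1-driven luciferase expression after 8 hours of MG132 stress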
T5 sequence (P38532 whole entry): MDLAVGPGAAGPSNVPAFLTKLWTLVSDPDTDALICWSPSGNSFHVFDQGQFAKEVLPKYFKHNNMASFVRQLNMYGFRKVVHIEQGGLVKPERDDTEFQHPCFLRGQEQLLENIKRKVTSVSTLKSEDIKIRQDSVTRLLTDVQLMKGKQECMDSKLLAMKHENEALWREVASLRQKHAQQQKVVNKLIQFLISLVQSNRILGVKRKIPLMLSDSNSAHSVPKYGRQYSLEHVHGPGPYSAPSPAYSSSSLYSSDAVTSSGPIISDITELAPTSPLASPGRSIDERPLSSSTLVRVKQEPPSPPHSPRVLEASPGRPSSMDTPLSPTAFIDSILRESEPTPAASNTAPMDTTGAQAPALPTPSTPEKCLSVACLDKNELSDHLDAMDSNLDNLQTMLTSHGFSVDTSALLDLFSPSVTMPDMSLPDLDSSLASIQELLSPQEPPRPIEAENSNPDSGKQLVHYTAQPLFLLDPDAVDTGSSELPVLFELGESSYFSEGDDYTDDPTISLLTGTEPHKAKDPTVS

[24] = inhibitors of intracellular T. cruzi replication, confirmation, NIH3T3 host cells, beta-gal luminescence (AID 2044); format: functional, cell-based;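 further: intracellular parasites grown in NIH/3T3 mouse fibroblasts as host cells; luminescent beta-galactosidase reporter signal from transgenic T. cruzi replicating inside host cells; inhibitors lower the luminescence signal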
[25] = cytotoxicity toward NIH3T3 fibroblasts, dose response, counter-screen, cell-based, ATP luminescence, mouse fibroblasts (AID 2010); format: functional;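 further: cells exposed to compound for about 90 hours before reading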
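Wherever AC50 is given: cells exposed to compound for roughly 70 hours or longer before luminescence read.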

Sequence of 14-3-3 protein gamma (P61981 whole entry): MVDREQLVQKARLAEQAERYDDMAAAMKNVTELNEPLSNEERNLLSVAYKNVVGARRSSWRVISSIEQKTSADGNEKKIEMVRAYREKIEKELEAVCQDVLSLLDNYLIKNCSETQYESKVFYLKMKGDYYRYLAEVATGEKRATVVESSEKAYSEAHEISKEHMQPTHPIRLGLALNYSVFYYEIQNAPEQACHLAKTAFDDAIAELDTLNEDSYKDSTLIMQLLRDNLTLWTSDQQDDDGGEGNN
Sequence of NS3 (A3EZJ3 whole entry): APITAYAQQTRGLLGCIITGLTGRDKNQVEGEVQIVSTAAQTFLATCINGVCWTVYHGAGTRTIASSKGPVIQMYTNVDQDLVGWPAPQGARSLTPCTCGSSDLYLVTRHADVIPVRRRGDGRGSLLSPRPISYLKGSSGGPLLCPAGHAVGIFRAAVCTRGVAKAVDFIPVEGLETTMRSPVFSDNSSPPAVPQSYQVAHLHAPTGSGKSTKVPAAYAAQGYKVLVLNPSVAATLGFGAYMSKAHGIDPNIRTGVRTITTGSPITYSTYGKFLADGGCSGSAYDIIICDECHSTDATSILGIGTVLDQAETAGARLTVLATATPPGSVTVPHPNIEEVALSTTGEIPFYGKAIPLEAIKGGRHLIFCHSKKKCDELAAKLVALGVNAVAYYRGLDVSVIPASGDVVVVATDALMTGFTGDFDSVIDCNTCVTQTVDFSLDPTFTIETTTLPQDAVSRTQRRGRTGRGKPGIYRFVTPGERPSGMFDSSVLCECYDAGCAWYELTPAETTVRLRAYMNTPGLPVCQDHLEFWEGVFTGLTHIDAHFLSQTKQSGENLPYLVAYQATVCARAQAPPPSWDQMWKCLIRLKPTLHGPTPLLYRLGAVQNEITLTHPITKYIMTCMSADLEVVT
Sequence of Peroxisome proliferator-activated receptor gamma/Nuclear receptor coactivator 2 (P37231 whole entry): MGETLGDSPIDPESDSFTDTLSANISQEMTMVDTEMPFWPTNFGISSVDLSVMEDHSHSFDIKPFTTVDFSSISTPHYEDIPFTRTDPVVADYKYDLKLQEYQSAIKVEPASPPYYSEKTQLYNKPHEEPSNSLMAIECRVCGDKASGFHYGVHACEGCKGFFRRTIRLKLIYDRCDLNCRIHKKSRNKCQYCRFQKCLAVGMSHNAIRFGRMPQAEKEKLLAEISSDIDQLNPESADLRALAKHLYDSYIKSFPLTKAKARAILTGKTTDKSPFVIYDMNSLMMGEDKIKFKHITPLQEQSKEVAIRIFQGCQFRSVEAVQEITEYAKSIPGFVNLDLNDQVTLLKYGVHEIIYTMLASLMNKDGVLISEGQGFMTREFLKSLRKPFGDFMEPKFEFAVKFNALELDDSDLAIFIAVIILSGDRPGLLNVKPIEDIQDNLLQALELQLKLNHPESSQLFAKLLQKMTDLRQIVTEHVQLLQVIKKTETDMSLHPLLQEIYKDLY
Sequence of Peroxisome proliferator-activated receptor gamma/Nuclear receptor coactivator 2 (Q15596 whole entry, further chain): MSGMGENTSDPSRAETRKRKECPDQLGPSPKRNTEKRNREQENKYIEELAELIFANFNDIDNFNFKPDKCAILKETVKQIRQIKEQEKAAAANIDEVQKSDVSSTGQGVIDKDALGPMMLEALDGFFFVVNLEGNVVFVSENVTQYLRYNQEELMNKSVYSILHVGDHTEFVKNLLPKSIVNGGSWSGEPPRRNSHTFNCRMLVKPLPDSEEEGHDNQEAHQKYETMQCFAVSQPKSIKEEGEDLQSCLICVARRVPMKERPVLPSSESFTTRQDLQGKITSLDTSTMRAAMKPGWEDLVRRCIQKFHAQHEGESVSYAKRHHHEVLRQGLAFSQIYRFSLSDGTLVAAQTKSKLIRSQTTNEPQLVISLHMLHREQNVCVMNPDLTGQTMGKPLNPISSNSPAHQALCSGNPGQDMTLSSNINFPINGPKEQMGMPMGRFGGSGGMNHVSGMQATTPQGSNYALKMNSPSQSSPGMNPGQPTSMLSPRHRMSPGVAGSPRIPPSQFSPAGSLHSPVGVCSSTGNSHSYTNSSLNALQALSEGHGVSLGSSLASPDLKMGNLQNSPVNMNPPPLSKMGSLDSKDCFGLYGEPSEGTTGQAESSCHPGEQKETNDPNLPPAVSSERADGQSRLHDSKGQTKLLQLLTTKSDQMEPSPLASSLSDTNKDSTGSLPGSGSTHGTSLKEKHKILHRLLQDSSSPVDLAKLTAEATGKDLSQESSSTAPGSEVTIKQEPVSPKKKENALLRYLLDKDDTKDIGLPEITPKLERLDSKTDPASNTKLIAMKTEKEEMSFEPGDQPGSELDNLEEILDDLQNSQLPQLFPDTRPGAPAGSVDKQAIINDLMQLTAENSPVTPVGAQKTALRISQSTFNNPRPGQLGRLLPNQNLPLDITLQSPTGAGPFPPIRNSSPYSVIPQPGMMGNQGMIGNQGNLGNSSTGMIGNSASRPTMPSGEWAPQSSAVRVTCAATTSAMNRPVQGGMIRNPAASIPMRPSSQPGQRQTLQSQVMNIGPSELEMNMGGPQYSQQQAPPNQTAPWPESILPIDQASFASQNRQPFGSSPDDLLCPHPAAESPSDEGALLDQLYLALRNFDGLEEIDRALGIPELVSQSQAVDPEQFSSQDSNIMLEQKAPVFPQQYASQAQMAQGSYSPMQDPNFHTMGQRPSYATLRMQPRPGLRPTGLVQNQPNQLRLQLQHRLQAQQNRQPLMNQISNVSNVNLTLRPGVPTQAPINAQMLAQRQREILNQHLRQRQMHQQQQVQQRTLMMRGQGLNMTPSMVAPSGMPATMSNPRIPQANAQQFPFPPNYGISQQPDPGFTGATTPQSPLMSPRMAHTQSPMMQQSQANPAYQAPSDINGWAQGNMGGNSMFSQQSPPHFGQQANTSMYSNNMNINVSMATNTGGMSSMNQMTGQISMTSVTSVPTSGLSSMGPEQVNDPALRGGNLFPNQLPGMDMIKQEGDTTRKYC
Sequence of Peroxisome proliferator-activated receptor gamma/Nuclear receptor coactivator 1 (P37231 whole entry): as the sequence (P37231 whole entry) above
Sequence of Peroxisome proliferator-activated receptor gamma/Nuclear receptor coactivator 1 (Q15788 whole entry, further chain): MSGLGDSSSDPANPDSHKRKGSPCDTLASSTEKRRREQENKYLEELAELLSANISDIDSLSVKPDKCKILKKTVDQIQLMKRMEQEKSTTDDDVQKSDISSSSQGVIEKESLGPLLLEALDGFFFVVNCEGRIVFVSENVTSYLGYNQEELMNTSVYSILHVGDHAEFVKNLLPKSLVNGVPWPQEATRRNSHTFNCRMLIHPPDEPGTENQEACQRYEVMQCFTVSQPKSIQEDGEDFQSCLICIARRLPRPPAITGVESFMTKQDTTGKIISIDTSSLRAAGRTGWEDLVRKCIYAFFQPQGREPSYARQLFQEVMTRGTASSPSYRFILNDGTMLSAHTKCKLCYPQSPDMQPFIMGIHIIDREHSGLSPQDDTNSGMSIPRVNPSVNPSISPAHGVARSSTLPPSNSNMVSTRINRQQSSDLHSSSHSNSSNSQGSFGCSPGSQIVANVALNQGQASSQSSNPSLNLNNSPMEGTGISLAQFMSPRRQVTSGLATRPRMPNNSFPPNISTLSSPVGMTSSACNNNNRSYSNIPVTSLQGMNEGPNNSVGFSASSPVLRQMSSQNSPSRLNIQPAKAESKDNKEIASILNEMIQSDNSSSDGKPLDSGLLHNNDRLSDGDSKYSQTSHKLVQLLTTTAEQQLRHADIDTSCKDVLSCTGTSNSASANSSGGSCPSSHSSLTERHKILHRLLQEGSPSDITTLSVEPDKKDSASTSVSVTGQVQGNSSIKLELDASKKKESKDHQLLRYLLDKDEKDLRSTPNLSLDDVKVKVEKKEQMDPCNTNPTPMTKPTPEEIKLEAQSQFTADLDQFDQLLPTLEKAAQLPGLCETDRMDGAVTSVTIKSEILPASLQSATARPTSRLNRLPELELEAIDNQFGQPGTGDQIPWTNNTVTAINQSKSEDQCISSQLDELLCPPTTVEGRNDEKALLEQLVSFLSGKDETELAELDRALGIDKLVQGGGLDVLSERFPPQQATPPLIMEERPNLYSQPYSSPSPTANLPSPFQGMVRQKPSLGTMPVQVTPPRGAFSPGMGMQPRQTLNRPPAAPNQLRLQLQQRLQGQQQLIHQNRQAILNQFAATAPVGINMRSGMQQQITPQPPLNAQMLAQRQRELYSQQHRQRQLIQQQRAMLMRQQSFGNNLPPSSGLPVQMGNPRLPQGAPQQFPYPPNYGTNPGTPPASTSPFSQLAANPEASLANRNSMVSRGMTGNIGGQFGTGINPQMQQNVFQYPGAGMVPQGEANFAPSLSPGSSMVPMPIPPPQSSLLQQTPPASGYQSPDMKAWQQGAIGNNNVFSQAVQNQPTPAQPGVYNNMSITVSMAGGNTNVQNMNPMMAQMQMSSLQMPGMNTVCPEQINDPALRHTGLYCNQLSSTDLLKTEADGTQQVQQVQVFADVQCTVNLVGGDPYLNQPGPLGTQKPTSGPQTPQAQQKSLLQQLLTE
Sequence of X-box-binding protein 1 (P17861 whole entry): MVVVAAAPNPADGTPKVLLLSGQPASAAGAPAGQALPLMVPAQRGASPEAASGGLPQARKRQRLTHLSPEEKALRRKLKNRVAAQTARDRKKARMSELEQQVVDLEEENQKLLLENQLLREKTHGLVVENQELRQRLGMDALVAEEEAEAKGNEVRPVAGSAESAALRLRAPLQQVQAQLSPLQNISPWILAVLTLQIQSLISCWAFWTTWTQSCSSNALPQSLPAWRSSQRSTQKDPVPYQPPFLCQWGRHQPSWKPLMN

SMILES: Cc1cc(C2(c3ccc(O)c(C)c3)C(=O)Nc3ccccc32)ccc1O
- AC50 [1]: 5.36 µM (active)
- Absolute IC50 (XBP1) (X-box-binding protein 1): 10 µM
- EC50 [2]: 17.4 µM (active)
- EC50 [3]: 17 µM (active)

SMILES: COC(=O)C1=C(C)N(C)C(C)=C(C(=O)OC)C1c1ccc(C(=O)OC)cc1
- IC50 (14-3-3 protein gamma): > 50 µM (not active)

SMILES: CN(Cc1ccccc1)C(=S)NC(=O)c1ccc(-c2ccccc2)cc1
- CC50 [4]: > 40 µM (active)

SMILES: Cc1cc(C)c(NC(=O)Cn2c(=O)n(-c3ccc(CC(=O)NCC4CCCO4)cc3)c(=O)c3ccccc32)c(C)c1 (centres undefined)
- EC50 [5]: > 100 µM (not active)

SMILES: CC(C)c1nc2sc3c(S)ncnc3c2c2c1CCC2
- CC50 [6]: 14.3 µM (active)
- IC50 [7]: > 50 µM (not active)
- IC50 [8]: 42.2 µM (not active)

SMILES: CN(C)C=O.O=C(Nc1cccc(S(=O)(=O)NC2=NCCCCC2)c1)c1cc(-c2ccco2)nc2ccccc12
- IC50 [9]: 6.77 µM (active)
- IC50 (Genome polyprotein): > 49.8 µM (not active)
- IC50 [10]: 1.69 µM (active)
- IC50 [11]: 23.1 µM (active)

SMILES: Cc1ccc(C)n1-c1sc2c(c1C#N)CCC(C)C2 (centres undefined)
- EC50 (Streptococcus): > 150 µM (not active)
- IC50 [12]: > 83.3 µM (inactive)
- EC50 [13]: 7.14 µM (active)
- EC50 (Streptokinase A): 14.6 µM (active)
- IC50 [14]: > 109 µM (inactive)

SMILES: C=CCn1c(SCC(=O)NCCCC)nc2scc(-c3ccco3)c2c1=O
- IC50 (NS3): 37.5 µM (not active)

SMILES: O=C(CCCSc1ccccc1)Nc1nc(-c2ccco2)c(-c2ccco2)s1
- IC50 (NS3): 5.62 µM (active)

SMILES: CC(c1ccccc1)C(Cc1nc2ccccc2[nH]1)c1nc2ccccc2[nH]1 (centres undefined)
- EC50 [5]: 61.3 µM (not active)

SMILES: Cc1cc(N2CCCCCC2)nc(-c2ccccc2O)n1
- CC50 [4]: > 40 µM (active)

SMILES: O=C(Nc1ccc(F)cc1)C1C(c2ccccc2)C1(Cl)Cl (centres undefined)
- IC50 [7]: > 50 µM (not active)
- IC50 [8]: > 50 µM (not active)

SMILES: CCN(CC)C(=O)Oc1ccc2c(c1)O/C(=C\c1ccco1)C2=O
- EC50 [15]: > 120 µM (not active)

SMILES: CN[C@H]1C[C@H]2O[C@@](C)([C@H]1OC)n1c3ccccc3c3c4c(c5c6ccccc6n2c5c31)C(=O)NC4
- IC50 [16]: 0.183 µM (active)

SMILES: CCc1ccc(/C=C2\SC(=S)N(CCC(=O)NC3=NCCS3)C2=O)cc1
- IC50 [17]: > 80 µM (inactive)

SMILES: NC(=O)c1cccc2c1C(=O)N(C1CCCCC1)C2
- IC50 (Estrogen receptor beta): 12.5 µM (active)
- IC50 (H9c2): > 79 µM (inactive)

SMILES: C#CCN(C)C(C)Cc1ccccc1 (centres undefined)
- IC50 (14-3-3 protein gamma): > 50 µM (not active)

SMILES: CCOC(=O)c1s/c(=N\C(=O)c2cc(OC)c(OC)c(OC)c2)n(C)c1C
- EC50 [18]: 49.7 µM (not active)
- EC50 [19]: 42 µM (not active)
- EC50 [20]: 30 µM (not active)

SMILES: C=CCN1C=C/C(=C/c2ccc3cc(C)ccc3[n+]2CC)c2ccccc21
- IC50 (Nonstructural protein 1): 7.64 µM (active)
- IC50 [21]: 32.9 µM (active)
- CC50 (Vero): 4.96 µM (active)

SMILES: COc1ccc(CCN2C(=O)c3[nH]nc(-c4ccccc4O)c3C2c2cccc(Cl)c2)cc1 (centres undefined)
- EC50 (Streptococcus): 17.6 µM (active)
- EC50 [13]: 5.5 µM (active)
- EC50 (Streptokinase A): 17.1 µM (active)
- Absolute IC50 (XBP1) (X-box-binding protein 1): 10 µM
- IC50 [22]: > 69.5 µM (inactive)

SMILES: Cc1ccc(CN2CCN(Cc3cccc(OCCO)c3)CC2CCO)o1 (centres undefined)
- EC50 [18]: > 79.4 µM (not active)
- EC50 [19]: > 79.4 µM (not active)
- EC50 [23]: > 195 µM (not active)
- EC50 [20]: > 79.4 µM (not active)

SMILES: O=C(Nc1ccncc1)Nc1cccc(Cl)c1Cl
- EC50 [24]: < 0.1 µM (active)
- EC50 [25]: > 60 µM (not active)
- EC50 (cells): 0.209 µM (active)
